Experiment [1] addresses human TLR8 (Homo sapiens (Human), UniProt Q9NR97). Description: HEK-Blue human TLR8 cells, NF-κB SEAP reporter assay. It is filed as cell-based. The note with it: 20 hours stimulation. The text has this: (§1) For TLR8 and TLR7 activity testing, HEK-Blue human TLR8 or TLR7 cells (Invivogen, San Diego, Calif., USA) are used, respectively. These cells are designed for studying the stimulation of human TLR8 or TLR7 by monitoring the activation of NF-κB. A SEAP (secreted embryonic alkaline phosphatase) reporter gene is placed under the control of the IFN-b minimal promoter fused to five NF-κB and AP-1-binding sites. Therefore the reporter expression is regulated by the NF-κB promoter upon stimulation of human TLR8 or TLR7 for 20 hours. The cell culture supernatant SEAP reporter activity was determined using Quanti Blue kit (Invivogen, San Diego, Ca, USA) at a wavelength of 640 nm, a detection medium that turns purple/blue in the presence of alkaline phosphatase. EC50 values were determined using Activity Base analysis (ID Business Solution, Limited).

The target of experiment [2] is human TLR7 (Homo sapiens (Human), UniProt Q9NYK1). Nature of the experiment: HEK-Blue human TLR7 cells, NF-κB SEAP reporter assay. It is filed as cell-based. The settings on record: 20 hours stimulation.
Excerpt: as §1

human TLR8, sequence (Q9NR97 27-1041): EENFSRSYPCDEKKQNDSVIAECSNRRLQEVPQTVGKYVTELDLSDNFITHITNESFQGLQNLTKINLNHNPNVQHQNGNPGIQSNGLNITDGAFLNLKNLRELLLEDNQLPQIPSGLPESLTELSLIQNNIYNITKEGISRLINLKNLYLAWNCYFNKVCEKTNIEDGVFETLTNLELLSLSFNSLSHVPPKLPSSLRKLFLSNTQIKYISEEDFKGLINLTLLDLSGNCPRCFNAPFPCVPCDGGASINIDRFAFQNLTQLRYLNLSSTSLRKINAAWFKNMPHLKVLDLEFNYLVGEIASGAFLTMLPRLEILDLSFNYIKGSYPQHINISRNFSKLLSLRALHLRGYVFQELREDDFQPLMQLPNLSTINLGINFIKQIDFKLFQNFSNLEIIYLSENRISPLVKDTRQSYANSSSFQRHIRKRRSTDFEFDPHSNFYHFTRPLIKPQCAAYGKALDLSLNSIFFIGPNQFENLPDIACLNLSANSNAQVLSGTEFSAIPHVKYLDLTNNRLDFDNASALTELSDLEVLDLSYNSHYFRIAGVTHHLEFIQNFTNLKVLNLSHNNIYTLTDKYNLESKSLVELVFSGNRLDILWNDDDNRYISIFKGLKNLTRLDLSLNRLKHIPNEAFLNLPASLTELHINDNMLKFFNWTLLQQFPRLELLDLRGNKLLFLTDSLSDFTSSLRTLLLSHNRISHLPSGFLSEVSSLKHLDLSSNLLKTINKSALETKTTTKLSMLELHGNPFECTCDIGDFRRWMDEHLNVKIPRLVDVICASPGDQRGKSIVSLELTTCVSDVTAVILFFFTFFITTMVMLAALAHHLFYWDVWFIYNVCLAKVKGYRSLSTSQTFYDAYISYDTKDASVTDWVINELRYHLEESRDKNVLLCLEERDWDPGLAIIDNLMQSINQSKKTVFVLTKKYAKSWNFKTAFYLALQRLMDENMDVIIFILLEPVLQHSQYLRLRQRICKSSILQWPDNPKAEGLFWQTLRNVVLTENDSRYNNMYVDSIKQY
human TLR7, sequence (Q9NYK1 27-1049): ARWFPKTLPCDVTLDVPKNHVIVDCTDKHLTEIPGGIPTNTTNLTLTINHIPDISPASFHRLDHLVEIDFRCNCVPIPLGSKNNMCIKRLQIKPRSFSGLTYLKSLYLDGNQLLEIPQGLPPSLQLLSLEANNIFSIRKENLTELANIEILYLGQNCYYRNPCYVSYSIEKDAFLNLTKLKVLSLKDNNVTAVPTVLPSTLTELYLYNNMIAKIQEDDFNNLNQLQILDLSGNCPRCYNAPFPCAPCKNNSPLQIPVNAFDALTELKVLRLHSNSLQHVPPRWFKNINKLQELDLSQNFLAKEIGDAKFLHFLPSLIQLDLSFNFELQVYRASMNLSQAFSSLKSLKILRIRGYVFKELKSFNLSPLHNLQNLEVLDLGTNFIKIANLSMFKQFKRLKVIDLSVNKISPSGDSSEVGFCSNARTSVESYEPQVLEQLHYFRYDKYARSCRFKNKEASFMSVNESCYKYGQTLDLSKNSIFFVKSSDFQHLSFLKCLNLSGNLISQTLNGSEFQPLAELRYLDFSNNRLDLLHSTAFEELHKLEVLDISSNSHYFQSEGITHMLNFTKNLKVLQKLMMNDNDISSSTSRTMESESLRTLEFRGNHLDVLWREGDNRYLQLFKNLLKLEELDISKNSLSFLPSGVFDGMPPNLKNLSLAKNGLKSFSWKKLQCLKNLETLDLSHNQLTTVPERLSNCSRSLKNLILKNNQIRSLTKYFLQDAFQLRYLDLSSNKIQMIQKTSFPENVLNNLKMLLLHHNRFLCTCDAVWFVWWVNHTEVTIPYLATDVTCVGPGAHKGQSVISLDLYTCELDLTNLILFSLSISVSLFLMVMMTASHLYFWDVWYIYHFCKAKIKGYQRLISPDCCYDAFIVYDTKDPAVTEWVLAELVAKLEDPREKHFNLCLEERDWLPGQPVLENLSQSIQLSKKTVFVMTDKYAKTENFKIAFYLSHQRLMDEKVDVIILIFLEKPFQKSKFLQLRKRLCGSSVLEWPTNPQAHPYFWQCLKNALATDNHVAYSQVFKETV

`CCCN(CCC)C(=O)C1=Cc2ccc(C3=NCc4cc(Cl)ccc4N3)cc2N=C(N)C1` [Example 8, 2-Amino-8-(6-chloro-1,4-dihydroquinazolin-2-yl)-N,N-dipropyl-3H-1-benzazepine-4-carboxamide]: the EC50 was 6 nM in experiment [1] and greater than 100000 nM in experiment [2].

For the compound `CCCN(CCC)C(=O)C1=Cc2ccc(C3=NCc4c(C)cccc4N3)cc2N=C(N)C1` [Example 9, 2-Amino-8-(5-methyl-1,4-dihydroquinazolin-2-yl)-N,N-dipropyl-3H-1-benzazepine-4-carboxamide], the EC50 in experiment [1] is 1 nM; in experiment [2], greater than 100000 nM.

For `CCCN(CCC)C(=O)C1=Cc2ccc(C3=NCc4ccc(Cl)cc4N3)cc2N=C(N)C1` [Example 6, 2-Amino-8-(7-chloro-1,4-dihydroquinazolin-2-yl)-N,N-dipropyl-3H-1-benzazepine-4-carboxamide], the EC50 in experiment [1] is 9 nM; in experiment [2], greater than 100000 nM.

With `CCCN(CCC)C(=O)C1=Cc2ccc(C3=NCc4ccncc4N3)cc2N=C(N)C1` [Example 2, 2-Amino-8-(1,4-dihydropyrido[3,4-d]pyrimidin-2-yl)-N,N-dipropyl-3H-1-benzazepine-4-carboxamide], the values for the EC50 in experiment [1] and in experiment [2] were 3 nM and greater than 100000 nM, respectively.

Consider `CCCN(CC(C)C)C(=O)C1=Cc2ccc(C3=NCc4ccccc4N3)cc2N=C(N)C1` [Example 4, 2-Amino-8-(1,4-dihydroquinazolin-2-yl)-N-isobutyl-N-propyl-3H-1-benzazepine-4-carboxamide], for which the EC50 in experiment [1] was 11 nM; in experiment [2], greater than 100000 nM.

`CCCN(CCC)C(=O)C1=Cc2ccc(C3=NCc4c(F)cccc4N3)cc2N=C(N)C1` [Example 10, 2-Amino-8-(5-fluoro-1,4-dihydroquinazolin-2-yl)-N,N-dipropyl-3H-1-benzazepine-4-carboxamide]: the EC50 in experiment [1] was 3 nM; in experiment [2], greater than 100000 nM.

For the compound `CCCN(CCC)C(=O)C1=Cc2ccc(C3=NCc4cc(OC)ccc4N3)cc2N=C(N)C1` [Example 11, 2-Amino-8-(6-methoxy-1,4-dihydroquinazolin-2-yl)-N,N-dipropyl-3H-1-benzazepine-4-carboxamide], the EC50 in experiment [1] was 2 nM; in experiment [2], greater than 100000 nM.

For `CCCN(CC1CC1)C(=O)C1=Cc2ccc(C3=NCc4ccccc4N3)cc2N=C(N)C1` [Example 3, 2-Amino-N-(cyclopropylmethyl)-8-(1,4-dihydroquinazolin-2-yl)-N-propyl-3H-1-benzazepine-4-carboxamide], the values for the EC50 in experiment [1] and in experiment [2] were 6 nM and greater than 100000 nM, respectively.

Turning to `CCCN(CCC)C(=O)C1=Cc2ccc(C3=NC(C)(C)c4ccccc4N3)cc2N=C(N)C1` [Example 7, 2-Amino-8-(4,4-dimethyl-1H-quinazolin-2-yl)-N,N-dipropyl-3H-1-benzazepine-4-carboxamide], the EC50 in experiment [1] was 7 nM; in experiment [2] it was greater than 100000 nM.

In the case of `CCCN(CCC)C(=O)C1=Cc2ccc(C3=NCc4c(Cl)cccc4N3)cc2N=C(N)C1` [Example 5, 2-Amino-8-(5-chloro-1,4-dihydroquinazolin-2-yl)-N,N-dipropyl-3H-1-benzazepine-4-carboxamide], a half-maximal effect in experiment [1] (EC50) was put at 11 nM. In other words, the double-digit nanomolar range.

`CCCN(CCC)C(=O)C1=Cc2ccc(C3=NCc4ccccc4N3)cc2N=C(N)C1` [Example 1, 2-Amino-8-(1,4-dihydroquinazolin-2-yl)-N,N-dipropyl-3H-1-benzazepine-4-carboxamide]: the EC50 in experiment [1] was 3 nM; in experiment [2], greater than 100000 nM.

Source of the values: patent publication US11046671B2, “Dihydropyrimidinyl benzazepine carboxamide compounds” (Hoffmann-La Roche Inc., priority 2016, dated 2021).
